Measured values taken from article PMC6471523, “Biological Evaluation and Docking Analysis of Potent BACE1 Inhibitors from Boesenbergia rotunda” (Nutrients, 2019).
Values after ≈ are worked out from the molar mass of the structure shown.

Experiments:
elastase = system: T1, elastase; experiment: Elastase absorbance inhibition assay; assay type: biochemical
T1 construct: purchased Sigma-Aldrich (St. Louis, MO, USA)
Method: (§1) Absorbance assays for trypsin, chymotrypsin, and elastase were estimated using N-benzoyl-ʟ-Arg-pNA, N-benzoyl-ʟ-Tyr-pNA, and N-succinyl-Ala-Ala-Ala-pNA as substrates, respectively. Enzyme, Tris-HCl buffer (0.05 M, in 0.02 M CaCl2, pH 8.2), and tested samples were incubated for 10 min at 25 °C then added to the substrate for 30 min at 37 °C. The absorbance was recorded at 410 nm. The inhibition ratio was obtained using the following equation:Inhibition (%) = {[1 − (A − B)]/control} × 100 where A was the absorbance of control (enzyme, assay buffer, and substrate) after 60 min of incubation, and B was the absorbance of the tested sample (assay buffer and sample solution) after 60 min of incubation.

trypsin = experiment: Trypsin absorbance inhibition assay; assay type: biochemical
Method: as §1

BACE1 [1] = target: T2, BACE1 (Homo sapiens, UniProt P56817); experiment: In vitro BACE1 enzyme inhibitory assay (fluorescence); assay type: biochemical; conditions: for IC50: 60 min, 25 °C, pH 4.5, mean ± SD of three experiments, read-out: IC50 (mean ± SD) against BACE1
T2 construct: purchased Invitrogen (Pan Vera, Madison, WI, USA)
T2 sequence (P56817 46-501): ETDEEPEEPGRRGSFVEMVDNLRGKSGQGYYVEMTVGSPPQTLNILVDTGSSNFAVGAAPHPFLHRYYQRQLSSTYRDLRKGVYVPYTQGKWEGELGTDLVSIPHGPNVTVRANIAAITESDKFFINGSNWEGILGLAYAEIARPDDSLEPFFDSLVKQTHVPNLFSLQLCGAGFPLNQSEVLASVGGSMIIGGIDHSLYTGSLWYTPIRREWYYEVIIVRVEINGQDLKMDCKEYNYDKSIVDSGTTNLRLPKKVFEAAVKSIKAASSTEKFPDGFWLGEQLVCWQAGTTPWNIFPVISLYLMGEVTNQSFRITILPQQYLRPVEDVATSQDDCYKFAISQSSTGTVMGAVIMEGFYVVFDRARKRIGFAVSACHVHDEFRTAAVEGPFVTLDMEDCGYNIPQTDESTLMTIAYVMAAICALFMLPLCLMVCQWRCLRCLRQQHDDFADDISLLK
Method: Enzyme assays for BACE1, TACE, chymotrypsin, trypsin, and elastase were carried out according to previously described methods [27]. Briefly, reaction mixtures containing human recombinant BACE1 (1.0 U/mL), a specific substrate (Rh-[sequence]-Quencher in 50 mM ammonium bicarbonate), and samples dissolved in an assay buffer (50 mM sodium acetate, pH 4.5) were incubated for 60 min at 25 °C in well plates. […] The inhibition ratio was obtained using the following equation:Inhibition (%) = [1 − (S − S0)/(C − C0)] × 100 where C was the fluorescence of control (enzyme, assay buffer, and substrate) after 60 min of incubation, C0 was the fluorescence of control at time 0, S was the fluorescence of tested samples (enzyme, sample solution, and substrate) after 60 min of incubation, and S0 was the fluorescence of the tested samples at time 0.

BACE1 [2] = target: T2, BACE1; experiment: BACE1 inhibition kinetics (Dixon and Lineweaver–Burk plots); assay type: biochemical; conditions: for Inhibition Mode: Dixon and Lineweaver–Burk plots; for Ki: Dixon plot
Method: The dissociation constant (Ki) was obtained by Dixon plot and maximum reaction velocity (Vmax) and Michaelis–Menten constant (Km) values were determined by Lineweaver–Burk plot using SigmaPlot™ version 12.3 (Systat Software, Inc., San Jose, CA, USA).
The type of inhibition and kinetic analysis was determined using a Michaelis–Menten curve, Dixon plot, and Lineweaver–Burk plot (Figure 2). The three lines of the Dixon plots intersected on the x-axis of the same plot (Figure 2b,e,h). […] This pattern indicated non-competitive inhibitory activity against BACE1, thereby interacting with locations other than the active binding site for these compounds. For noncompetitive inhibition of enzymes, the Ki value of inhibitor is essentially the same numerical value as the IC50 [29].

chymotrypsin = system: T3, chymotrypsin; experiment: Chymotrypsin absorbance inhibition assay; assay type: biochemical
T3 construct: purchased Sigma-Aldrich (St. Louis, MO, USA)
Method: as §1

human recombinant TACE = system: T4, human recombinant TACE; experiment: TACE (α-secretase) enzyme inhibitory assay; assay type: biochemical
T4 construct: purchased R&D Systems (Minneapolis, MN, USA)
Method: A human recombinant TACE (0.1 ppm in 25 mM Tris buffer), the substrate (APP peptide […] using EDANS/DABCYL), and samples were dissolved in an assay buffer, which were then combined and incubated for 60 min in the dark at 25 °C. The increase in fluorescence intensity produced by substrate hydrolysis was measured by using a microplate reader with excitation and emission wavelengths of 320 and 405 nm, respectively.

HIV-1 protease = system: HIV-1 protease; set-up: method as in earlier work; conditions: cited from earlier work
Wister rats = conditions: 100 mg/kg, 7 days; cited from earlier work
[3] = system: rat model of global cerebral ischemia-reperfusion; conditions: oral, 10 mg/kg, 7 days; cited from earlier work
[4] = system: intracerebroventricular Aβ25–35-injected mice; conditions: oral, 20 mg/kg, 8 days; cited from earlier work
[5] = system: APP/PS1 transgenic mouse model; conditions: 40 mg/kg, 3-month period; cited from earlier work
BBB = conditions: in vitro study; cited from earlier work
[6] = set-up: method as in PMID 28271112; conditions: calculated; in Å2 (unit assumed); cited from earlier work
[7] = Physicochemical properties for BBB permeability prediction; conditions: inferred from MW, PSA and clog P
Description: However, few BACE1 inhibitors have been marketed to treat AD due to the difficulty in developing therapeutic agents that can efficiently cross the BBB and reach appropriate concentrations in the cerebral parenchyma, and, moreover, can do so without side effects. Recently, QSAR study approaches have been used to generate predictive models for BBB permeability. […] Cardamonin has a MW of 270.28, a PSA value calculated as 66.76, and a clog P of 4.54, obtained by determining the partition coefficient between n-octanol and water.

[8] = set-up: method as in PMID 29066742; conditions: 10 mg/kg, 30 weeks; cited from earlier work

SMILES: COc1cc(O)c2c(c1)OC(c1ccccc1)CC2=O (centres unmarked) [Pinostrobin, 5-hydroxy-7methoxyflavanone]
- Inhibitory activity (%) Elastase (elastase; sample 10 μM): 5.21 ± 0.41%
- Inhibitory activity (%) Elastase (elastase; sample 100 μM): 2.63 ± 0.37%
- Inhibitory activity (%) Trypsin (trypsin; sample 10 μM): 3.19 ± 0.16%
- Inhibitory activity (%) Trypsin (trypsin; sample 100 μM): 1.52 ± 0.05%
- IC50 (BACE1 [1]): 28.4 ± 1.96 µM
- Inhibition Mode (BACE1 [2]): Noncompetitive
- Ki (BACE1 [2]): 30.9 µM
- Inhibitory activity (%) Chymotrypsin (chymotrypsin; sample 10 μM): 3.29 ± 0.25%
- Inhibitory activity (%) Chymotrypsin (chymotrypsin; sample 100 μM): 5.41 ± 0.49%
- Inhibitory activity (%) TACE (human recombinant TACE; sample 10 μM): 8.53 ± 1.05%
- Inhibitory activity (%) TACE (human recombinant TACE; sample 100 μM): 9.19 ± 1.20%
- IC50 HIV-1 protease activity (HIV-1 protease): > 100 µg/mL
- Toxicity or mutagenic effects after oral administration (Wister rats): did not induce any toxicity or mutagenic effects

SMILES: O=C1CC(c2ccccc2)Oc2cc(O)cc(O)c21 (centres unmarked) [Pinocembrin, 5,7-dihydroxyflavanone]
- Inhibitory activity (%) Elastase (elastase; sample 10 μM): 3.24 ± 0.19%
- Inhibitory activity (%) Elastase (elastase; sample 100 μM): 2.56 ± 0.08%
- Inhibitory activity (%) Trypsin (trypsin; sample 10 μM): 4.35 ± 0.26%
- Inhibitory activity (%) Trypsin (trypsin; sample 100 μM): 4.96 ± 0.27%
- IC50 (BACE1 [1]): 27 ± 2.12 µM
- Effect on hippocampal inflammation, oxidative stress and apoptosis [3]: suppressed hippocampal inflammation, oxidative stress, and apoptosis
- Inhibition Mode (BACE1 [2]): Noncompetitive
- Ki (BACE1 [2]): 29.3 µM
- Effect on cognitive impairment [4]: significantly improved cognitive impairment
- Inhibitory activity (%) Chymotrypsin (chymotrypsin; sample 10 μM): 7.18 ± 1.87%
- Inhibitory activity (%) Chymotrypsin (chymotrypsin; sample 100 μM): 8.61 ± 1.09%
- Inhibitory activity (%) TACE (human recombinant TACE; sample 10 μM): 5.15 ± 0.98%
- Inhibitory activity (%) TACE (human recombinant TACE; sample 100 μM): 6.95 ± 1.52%
- Effect on cognitive deficits and neurovascular unit [5]: attenuated cognitive deficits and protected the neurovascular unit
- BBB crossing in vitro (BBB): could cross the BBB by passive transport partly through P-glycoprotein
- IC50 HIV-1 protease activity (HIV-1 protease): > 100 µg/mL
- Toxicity or mutagenic effects after oral administration (Wister rats): did not induce any toxicity or mutagenic effects

SMILES: COc1cc(O)cc(O)c1C(=O)/C=C/c1ccccc1 [Cardamonin, 2′,4′-dihydroxy-6′-methoxychalcone]
- polar surface area (PSA) [6]: 66.76
- Inhibitory activity (%) Elastase (elastase; sample 50 μM): 2.29 ± 0.41%
- Inhibitory activity (%) Elastase (elastase; sample 100 μM): 1.41 ± 0.19%
- Inhibitory activity (%) Trypsin (trypsin; sample 50 μM): 1.13 ± 0.18%
- Inhibitory activity (%) Trypsin (trypsin; sample 100 μM): 3.74 ± 0.53%
- IC50 (BACE1 [1]): 4.35 ± 0.38 µM
- BACE1 IC50 relative to resveratrol (BACE1 [1]; comparison of IC50 values): three-fold higher
- BACE1 inhibition relative to pinocembrin and pinostrobin (BACE1 [1]; comparison of IC50 values): six-fold more effective
- Predicted BBB crossing [7]: predicted to cross the BBB
- Inhibition Mode (BACE1 [2]): Noncompetitive
- Ki (BACE1 [2]): 5.1 µM
- Toxicity after chronic oral administration [8]: did not elicit any apparent toxicity
- Inhibitory activity (%) Chymotrypsin (chymotrypsin; sample 50 μM): 6.20 ± 0.41%
- Inhibitory activity (%) Chymotrypsin (chymotrypsin; sample 100 μM): 4.23 ± 0.55%
- Inhibitory activity (%) TACE (human recombinant TACE; sample 50 μM): 1.38 ± 0.36%
- Inhibitory activity (%) TACE (human recombinant TACE; sample 100 μM): 2.69 ± 1.44%
- IC50 HIV-1 protease activity (HIV-1 protease): 31.0 µg/mL (≈ 115 µM)
